Measured values taken from US20080280891A1, “Anti-cancer agents and uses thereof” (Locus Pharmaceuticals, Inc., priority 2006, published 2008).

Legend:
Type in all cases: cell-based
[1] = system: Jurkat T-cell leukemic cells; test: Cell cycle assay (Example 163), G2/M block in Jurkat cells; conditions: Homo sapiens, Jurkat, 24 h, flow cytometry (PI), Table 2
Protocol: MCF-7 breast cancer cells and Jurkat T-cell leukemic cells were grown (and maintained) in EMEM and RPMI media, respectively, containing 10% fetal calf serum.
Test agents were added a concentration of 0.1 μM. Twenty-fours after test agent addition, cells were analyzed for cell cycle status as described below.
(§1) Cell cycle status was analyzed by flow cytometry. Briefly, cells were collected and washed with FACs buffer (Pharmingen) and resuspended and fixed in 1 mL of 80% ethanol for 1 hr. Cells were washed with FACs buffer and resuspended in propidium iodide(PI)/RNase staining buffer (Pharmingen). PI is a fluorescent dye that labels nucleic acids such as DNA. The fluorescence within a cell (in the presence of PI) is proportional to the amount of DNA within a cell. The cell content of DNA is an indices of status in the cell cycle. […] Cells in the S phase have DNA content that lies between these extremes.
(§2) For testing of cell cycle effects of test agents the percentage of cells within the G1 and G2/M phase were measured.

[2] = system: Hela cells; test: Cell viability assay (WST-1), Hela cells; conditions: Homo sapiens, HeLa, WST-1, 48-72 hrs, 0.5% fetal calf serum
Protocol: Jurkat and Hela cells were cultured in RPMI and EMEM media, respectively, containing 0.5% fetal calf serum. Cells were plated in a volume of 100 μL in a 96 well format. Test compounds were included in the culture media at concentrations ranging from 1 nM to 10 μM for a period of 48-72 hrs. Cell viability was determined using the WST-1 calorimetric mitochondrial reduction assay. Briefly, 10 μL of WST-1 reagent was included in the culture well for a period of 1 to 4 hrs. The WST-1 reaction was read on a multiwell spectrophotometer as the difference in the absorbance between 450 nm and 600 nm (baseline). Absorbance was proportional to the number of living cells in the culture well. Concentration response curves and IC50 values were calculated using GraphPAD Prism graphing and curve fitting program.

[3] = system: MCF-7 breast cancer cells; test: Cell cycle assay (Example 164), G2/M block in MCF-7 cells; conditions: for activation at 0.1 µM / IC50: Homo sapiens, MCF7; for activation at 0.1 µM / MCF-7 G2/M Block 1 μM: 24 h, flow cytometry (PI); for activation at 0.1 µM: Table 4; for IC50: MCF-7, footnotes * and ** of Table 4, read-out: IC50 (footnote mark in column MCF-7 G2/M Block); for MCF-7 G2/M Block 1 μM: Table 3
Protocol: (§3) The adherent MCF-7 breast cancer cells and NCI-H522 non small cell lung cancer cells were grown and maintained in EMEM cell culture media containing 10% fetal calf serum.
(§4) Cells were allowed to adhere for 24 hrs. After adherence, cell culture media was changed to that containing 0.5% FCS. Thirty minutes post-media change, test compounds were added at a concentration of either 1.0 or 0.1 μM (as specified in the Tables). Twenty-four hours after test agent addition, cells were analyzed for cell cycle status as described below.
as §1, with “indicator” for “indices”
as §2

[4] = system: NCI-H522 non small cell lung cancer cells; test: Cell cycle assay (Example 164), G2/M block in NCI-H522 cells; conditions: Homo sapiens; for activation at 0.1 µM: 24 h, flow cytometry (PI)
Protocol: as §3, §4
as §1, with “indicator” for “indices”
as §2

| Structure (SMILES) | activation at 0.1 µM [3] [%] | activation at 0.1 µM ([4]; Table 4) [%] | further results |
| --- | --- | --- | --- |
| Oc1cc(-c2cccc3[nH]ccc23)nc(Nc2cccnc2)n1 [6-(1H-Indol-4-yl)-2-(pyridin-3-ylamino)-pyrimidin-4-ol] | – | – | activation at 0.1 µM [1]: ≥ 50%; IC50 [2]: 1000 to 30000 nM |
| O=[N+]([O-])c1ccc2ccn(-c3cc(O)cc(Nc4cccnc4)c3)c2c1 [3-(6-Nitro-indol-1-yl)-5-(pyridin-3-ylamino)-phenol] | – | – | activation at 0.1 µM [1]: ≥ 50%; IC50 [2]: 1 to 999 nM |
| Oc1cc(Nc2cccnc2)cc(-c2cccc(-c3ccccc3)c2)c1 [5-(Pyridin-3-ylamino)-[1,1′;3′,1″]terphenyl-3-ol] | – | – | IC50 [2]: 1000 to 30000 nM |
| Nc1nccc(-c2cc(O)cc(-c3cccc4[nH]ccc34)c2)n1 [3-(2-Amino-pyrimidin-4-yl)-5-(1H-indol-4-yl)-phenol] | < 50 | ≥ 50 | – |
| COC(=O)Nc1cc(-c2ccc(OC)nc2)cc(-c2cccc3[nH]ccc23)c1 [[3-(1H-Indol-4-yl)-5-(6-methoxy-pyridin-3-yl)-phenyl]-carbamic acid methyl ester] | < 50 | ≥ 50 | IC50 [3]: 100 to 1000 nM |
| COC(=O)Nc1cc(C(=O)c2ccnc(C)c2)cc(-c2cccc3[nH]ccc23)c1 [[3-(1H-Indol-4-yl)-5-(2-methyl-pyridine-4-carbonyl)-phenyl]-carbamic acid methyl ester] | < 50 | ≥ 50 | – |
| CC(=O)Nc1cc(C(=O)c2cc(C)nc(N3CCOCC3)c2)cc(-c2cccc3[nH]ccc23)c1 [N-[3-(1H-Indol-4-yl)-5-(2-methyl-6-morpholin-4-yl-pyridine-4-carbonyl)-phenyl]-acetamide] | ≥ 50 | ≥ 50 | – |
| Nc1nccc(-c2cc(Br)cc(-c3cccc4[nH]ccc34)c2)n1 [4-[3-Bromo-5-(1H-indol-4-yl)-phenyl]-pyrimidin-2-ylamine] | ≥ 50 | ≥ 50 | – |
| O=C(CO)Nc1cc(C(=O)c2ccnc(N3CCOCC3)c2)cc(-c2cccc3[nH]ccc23)c1 [2-Hydroxy-N-[3-(1H-indol-4-yl)-5-(2-morpholin-4-yl-pyridine-4-carbonyl)-phenyl]-acetamide] | ≥ 50 | ≥ 50 | – |
| COc1ccc(-c2cc(NC(C)=O)cc(-c3cccc4[nH]ccc34)c2)cn1 [N-[3-(1H-Indol-4-yl)-5-(6-methoxy-pyridin-3-yl)-phenyl]-acetamide] | ≥ 50 | ≥ 50 | – |
| Cc1cccc(-c2cc(NS(C)(=O)=O)cc(-c3cccc4[nH]ccc34)c2)c1 [N-[5-(1H-Indol-4-yl)-3′-methyl-biphenyl-3-yl]-methanesulfonamide] | ≥ 50 | ≥ 50 | – |
| CS(=O)(=O)Nc1cc(-c2ccc(F)cc2F)cc(-c2cccc3[nH]ccc23)c1 [N-[5-(1H-Indol-4-yl)-2′,4′-difluoro-biphenyl-3-yl]-methanesulfonamide] | < 50 | ≥ 50 | – |
| CS(=O)(=O)Nc1cc(-c2ccnc(Cl)c2)cc(-c2cccc3[nH]ccc23)c1 [N-[3-(2-Chloro-pyridin-4-yl)-5-(1H-indol-4-yl)-phenyl]-methanesulfonamide] | ≥ 50 | ≥ 50 | – |
| Cc1cc(C(=O)c2cc(NS(C)(=O)=O)cc(-c3cccc4[nH]ccc34)c2)cc(N(C)C)n1 [N-[3-(2-Dimethylamino-6-methyl-pyridine-4-carbonyl)-5-(1H-indol-4-yl)-phenyl]-methanesulfonamide] | ≥ 50 | ≥ 50 | – |
| Cc1cc(C(=O)c2cc(NS(C)(=O)=O)cc(-c3cccc4[nH]ccc34)c2)cc(N2CCOCC2)n1 [N-[3-(1H-Indol-4-yl)-5-(2-methyl-6-morpholin-4-yl-pyridine-4-carbonyl)-phenyl]-methanesulfonamide] | ≥ 50 | ≥ 50 | – |
| CC(=O)Nc1cc(C(=O)c2ccnc(N(C)C)c2)cc(-c2cccc3[nH]ccc23)c1 [N-[3-(2-Dimethylamino-pyridine-4-carbonyl)-5-(1H-indol-4-yl)-phenyl]-acetamide] | ≥ 50 | ≥ 50 | – |
| CS(=O)(=O)Nc1cc(C(=O)c2ccnc(N3CCSCC3)c2)cc(-c2cccc3[nH]ccc23)c1 [N-[3-(1H-Indol-4-yl)-5-(2-thiomorpholin-4-yl-pyridine-4-carbonyl)-phenyl]-methanesulfonamide] | ≥ 50 | ≥ 50 | – |
| COC(=O)Nc1cc(C(=O)c2ccnc(OC)c2)cc(-c2cccc3occc23)c1 [[3-Benzofuran-4-yl-5-(2-methoxy-pyridine-4-carbonyl)-phenyl]-carbamic acid methyl ester] | < 50 | < 50 | IC50 [3]: 500 to 5000 nM; IC50 ([4]; H522, footnotes * and ** of Table 4, read-out: IC50 (footnote mark in H522 G2/M Block)): 500 to 5000 nM |
| CC(=O)Nc1cc(-c2ccncc2)cc(-c2cccc3[nH]ccc23)c1 [N-[3-(1H-Indol-4-yl)-5-pyridin-4-yl-phenyl]-acetamide] | ≥ 50 | ≥ 50 | – |
| Nc1ccc(-c2cccc3[nH]ccc23)cc1C(=O)c1cccnc1 [[2-Amino-5-(1H-indol-4-yl)-phenyl]-pyridin-3-yl-methanone] | – | – | MCF-7 G2/M Block 1 μM [3]: Y (Y indicates a 50% or greater increase in the number of cells in the G2/M phase, as compared to control); activation at 0.1 µM ([4]; Table 3): ≥ 50% |
| CC(=O)Nc1cc(-c2ccc(F)cc2F)cc(-c2cccc3[nH]ccc23)c1 [N-[5-(1H-Indol-4-yl)-2′,4′-difluoro-biphenyl-3-yl]-acetamide] | ≥ 50 | ≥ 50 | – |
| CS(=O)(=O)Nc1cc(-c2ccnc(N)n2)cc(-c2cccc3[nH]ccc23)c1 [N-[3-(2-Amino-pyrimidin-4-yl)-5-(1H-indol-4-yl)-phenyl]-methanesulfonamide] | ≥ 50 | ≥ 50 | – |
| COc1ccc(-c2cc(NS(C)(=O)=O)cc(-c3cccc4[nH]ccc34)c2)cn1 [N-[3-(1H-Indol-4-yl)-5-(6-methoxy-pyridin-3-yl)-phenyl]-methanesulfonamide] | ≥ 50 | ≥ 50 | – |
| COC(=O)Nc1cc(C(=O)c2cc(C)nc(C)c2)cc(-c2cccc3[nH]ccc23)c1 [[3-(2,6-Dimethyl-pyridine-4-carbonyl)-5-(1H-indol-4-yl)-phenyl]-carbamic acid methyl ester] | ≥ 50 | ≥ 50 | – |
| Oc1cc(Nc2cccnc2)cc(-c2ccc3c(c2)CCC3)c1 [3-Indan-5-yl-5-(pyridin-3-ylamino)-phenol] | – | – | IC50 [2]: 1000 to 30000 nM |
| CS(=O)(=O)Nc1cc(-c2cc(C(F)(F)F)ccc2F)cc(-c2cccc3[nH]ccc23)c1 [N-[2′-fluoro-5-(1H-indol-4-yl)-5′-trifluoromethyl-biphenyl-3-yl]-methanesulfonamide] | ≥ 50 | ≥ 50 | – |
| COC(=O)Nc1cc(Nc2ccc(C#N)nc2)cc(-c2cccc3[nH]ccc23)c1 [[3-(6-Cyano-pyridin-3-ylamino)-5-(1H-indol-4-yl)-phenyl]-carbamic acid methyl ester] | – | – | MCF-7 G2/M Block 1 μM [3]: Y (Y indicates a 50% or greater increase in the number of cells in the G2/M phase, as compared to control); activation at 0.1 µM ([4]; Table 3): < 50% |
| CN(C)c1cc(C(=O)c2cc(NS(C)(=O)=O)cc(-c3cccc4[nH]ccc34)c2)ccn1 [N-[3-(2-Dimethylamino-pyridine-4-carbonyl)-5-(1H-indol-4-yl)-phenyl]-methanesulfonamide] | ≥ 50 | ≥ 50 | – |
